Laboratory results reported in the NIST ThermoML archive (doi:10.1016/j.fluid.2009.08.017).
± gives the expanded uncertainty stated by the source.

Assay: activity coefficient (dimensionless); of the first substance listed, at infinite dilution; xn = mol fraction of the nth substance listed
Details: 101 kPa, Liquid, Chromatography, x1 = 0

Compound	activity coefficient (298.15 K)	activity coefficient (308.15 K)	activity coefficient (318.15 K)	activity coefficient (328.15 K)	activity coefficient (338.15 K)	activity coefficient (348.15 K)	activity coefficient (358.15 K)	activity coefficient (368.15 K)
C1CCCCCC1 [cycloheptane] + CCCCCCOCn1cc[n+](COCCCCCC)c1.O=S(=O)([N-]S(=O)(=O)C(F)(F)F)C(F)(F)F	2.71 ± 0.18	2.6 ± 0.18	2.5 ± 0.17	2.41 ± 0.16	2.33 ± 0.16	2.25 ± 0.15	2.19 ± 0.15	2.12 ± 0.14
CC(C)=O [acetone] + CCCCCCOCn1cc[n+](C)c1.O=S(=O)([N-]S(=O)(=O)C(F)(F)F)C(F)(F)F	0.3 ± 0.031	0.308 ± 0.031	0.315 ± 0.031	0.322 ± 0.031	0.328 ± 0.032	0.336 ± 0.032	0.342 ± 0.032	0.348 ± 0.032
C1CCCCCC1 [cycloheptane] + CCCCCCOCn1cc[n+](C)c1.O=S(=O)([N-]S(=O)(=O)C(F)(F)F)C(F)(F)F	6.51 ± 0.44	6.15 ± 0.42	5.8 ± 0.4	5.49 ± 0.37	5.23 ± 0.36	5.02 ± 0.34	4.79 ± 0.33	4.6 ± 0.31
c1ccccc1 [benzene] + CCCCCCOCn1cc[n+](C)c1.O=S(=O)([N-]S(=O)(=O)C(F)(F)F)C(F)(F)F	0.802 ± 0.052	0.807 ± 0.052	0.812 ± 0.053	0.816 ± 0.053	0.82 ± 0.053	0.824 ± 0.053	0.827 ± 0.053	0.832 ± 0.054
C1CCCCCCC1 [cyclooctane] + CCCCCCOCn1cc[n+](C)c1.O=S(=O)([N-]S(=O)(=O)C(F)(F)F)C(F)(F)F	8.12 ± 0.55	7.57 ± 0.52	7.11 ± 0.48	6.74 ± 0.46	6.35 ± 0.43	6.06 ± 0.41	5.75 ± 0.39	5.48 ± 0.37
C1CCCC1 [cyclopentane] + CCCCCCOCn1cc[n+](COCCCCCC)c1.O=S(=O)([N-]S(=O)(=O)C(F)(F)F)C(F)(F)F	1.84 ± 0.12	1.78 ± 0.12	1.74 ± 0.12	1.69 ± 0.11	1.65 ± 0.11	1.61 ± 0.11	1.57 ± 0.1	1.54 ± 0.1
CCCCCCCCC [nonane] + CCCCCCOCn1cc[n+](COCCCCCC)c1.O=S(=O)([N-]S(=O)(=O)C(F)(F)F)C(F)(F)F	5.93 ± 0.4	5.67 ± 0.39	5.42 ± 0.37	5.22 ± 0.36	5.01 ± 0.34	4.84 ± 0.33	4.68 ± 0.32	4.53 ± 0.31
C#CCCCC [1-hexyne] + CCCCCCOCn1cc[n+](COCCCCCC)c1.O=S(=O)([N-]S(=O)(=O)C(F)(F)F)C(F)(F)F	1.16 ± 0.074	1.17 ± 0.075	1.17 ± 0.075	1.18 ± 0.075	1.18 ± 0.076	1.19 ± 0.076	1.19 ± 0.076	1.19 ± 0.076
O [water] + CCCCCCOCn1cc[n+](C)c1.O=S(=O)([N-]S(=O)(=O)C(F)(F)F)C(F)(F)F	4.37 ± 0.3	3.81 ± 0.26	3.32 ± 0.23	2.9 ± 0.2	2.57 ± 0.17	2.28 ± 0.16	2.04 ± 0.14	
C=CCCCCCC [oct-1-ene] + CCCCCCOCn1cc[n+](COCCCCCC)c1.O=S(=O)([N-]S(=O)(=O)C(F)(F)F)C(F)(F)F	3.28 ± 0.22	3.2 ± 0.22	3.12 ± 0.21	3.05 ± 0.21	2.99 ± 0.2	2.93 ± 0.2	2.87 ± 0.2	2.83 ± 0.19
Cc1cccc(C)c1 [1,3-dimethylbenzene] + CCCCCCOCn1cc[n+](COCCCCCC)c1.O=S(=O)([N-]S(=O)(=O)C(F)(F)F)C(F)(F)F			0.944 ± 0.06	0.946 ± 0.06	0.948 ± 0.06	0.951 ± 0.06	0.953 ± 0.06	0.955 ± 0.06
C=CCCCC [hex-1-ene] + CCCCCCOCn1cc[n+](C)c1.O=S(=O)([N-]S(=O)(=O)C(F)(F)F)C(F)(F)F	4.89 ± 0.33	4.72 ± 0.32	4.59 ± 0.31	4.46 ± 0.3	4.33 ± 0.29	4.23 ± 0.29	4.12 ± 0.28	4.03 ± 0.27
C1CCOC1 [tetrahydrofuran] + CCCCCCOCn1cc[n+](C)c1.O=S(=O)([N-]S(=O)(=O)C(F)(F)F)C(F)(F)F	0.424 ± 0.035	0.438 ± 0.035	0.452 ± 0.036	0.466 ± 0.036	0.479 ± 0.037	0.491 ± 0.037	0.504 ± 0.038	0.515 ± 0.038
CO [methanol] + CCCCCCOCn1cc[n+](C)c1.O=S(=O)([N-]S(=O)(=O)C(F)(F)F)C(F)(F)F	1.36 ± 0.09	1.24 ± 0.08	1.13 ± 0.07	1.04 ± 0.07	0.959 ± 0.06	0.894 ± 0.057	0.832 ± 0.054	0.775 ± 0.051
C1CCOC1 [tetrahydrofuran] + CCCCCCOCn1cc[n+](COCCCCCC)c1.O=S(=O)([N-]S(=O)(=O)C(F)(F)F)C(F)(F)F	0.294 ± 0.031	0.304 ± 0.031	0.314 ± 0.031	0.324 ± 0.032	0.333 ± 0.032	0.343 ± 0.032	0.352 ± 0.032	0.36 ± 0.033
CCCCC [pentane] + CCCCCCOCn1cc[n+](COCCCCCC)c1.O=S(=O)([N-]S(=O)(=O)C(F)(F)F)C(F)(F)F	2.78 ± 0.19	2.69 ± 0.18	2.62 ± 0.18	2.54 ± 0.17	2.48 ± 0.17	2.43 ± 0.17	2.38 ± 0.16	2.33 ± 0.16
CCO [ethanol] + CCCCCCOCn1cc[n+](COCCCCCC)c1.O=S(=O)([N-]S(=O)(=O)C(F)(F)F)C(F)(F)F	1.25 ± 0.08	1.14 ± 0.07	1.04 ± 0.065	0.958 ± 0.06	0.886 ± 0.056	0.824 ± 0.053	0.767 ± 0.05	0.719 ± 0.048
CCO [ethanol] + CCCCCCOCn1cc[n+](C)c1.O=S(=O)([N-]S(=O)(=O)C(F)(F)F)C(F)(F)F	1.59 ± 0.11	1.44 ± 0.09	1.31 ± 0.09	1.2 ± 0.08	1.1 ± 0.07	1.03 ± 0.06	0.952 ± 0.06	0.891 ± 0.057
C1CCCC1 [cyclopentane] + CCCCCCOCn1cc[n+](C)c1.O=S(=O)([N-]S(=O)(=O)C(F)(F)F)C(F)(F)F	4.19 ± 0.29	3.99 ± 0.27	3.82 ± 0.26	3.66 ± 0.25	3.51 ± 0.24	3.38 ± 0.23	3.27 ± 0.22	3.16 ± 0.22
C=CCCCC [hex-1-ene] + CCCCCCOCn1cc[n+](COCCCCCC)c1.O=S(=O)([N-]S(=O)(=O)C(F)(F)F)C(F)(F)F	2.25 ± 0.15	2.2 ± 0.15	2.15 ± 0.15	2.11 ± 0.14	2.07 ± 0.14	2.04 ± 0.14	2.01 ± 0.14	1.97 ± 0.13
CCCCCCC [heptane] + CCCCCCOCn1cc[n+](COCCCCCC)c1.O=S(=O)([N-]S(=O)(=O)C(F)(F)F)C(F)(F)F	3.94 ± 0.27	3.81 ± 0.26	3.68 ± 0.25	3.57 ± 0.24	3.46 ± 0.24	3.36 ± 0.23	3.27 ± 0.22	3.19 ± 0.22
c1ccsc1 [thiophene] + CCCCCCOCn1cc[n+](COCCCCCC)c1.O=S(=O)([N-]S(=O)(=O)C(F)(F)F)C(F)(F)F	0.578 ± 0.041	0.575 ± 0.041	0.571 ± 0.041	0.568 ± 0.041	0.565 ± 0.041	0.562 ± 0.04	0.559 ± 0.04	0.557 ± 0.04
Cc1ccccc1 [toluene] + CCCCCCOCn1cc[n+](COCCCCCC)c1.O=S(=O)([N-]S(=O)(=O)C(F)(F)F)C(F)(F)F		0.743 ± 0.049	0.746 ± 0.049	0.749 ± 0.049	0.753 ± 0.05	0.756 ± 0.05	0.758 ± 0.05	0.761 ± 0.05
CCCO [propan-1-ol] + CCCCCCOCn1cc[n+](COCCCCCC)c1.O=S(=O)([N-]S(=O)(=O)C(F)(F)F)C(F)(F)F	1.31 ± 0.09	1.19 ± 0.08	1.09 ± 0.07	1 ± 0.063	0.929 ± 0.059	0.861 ± 0.055	0.803 ± 0.052	0.752 ± 0.049
CCCCCC [hexane] + CCCCCCOCn1cc[n+](C)c1.O=S(=O)([N-]S(=O)(=O)C(F)(F)F)C(F)(F)F	8.36 ± 0.57	7.96 ± 0.54	7.59 ± 0.52	7.27 ± 0.5	6.98 ± 0.48	6.71 ± 0.46	6.46 ± 0.44	6.24 ± 0.43
C=CCCCCC [1-heptene] + CCCCCCOCn1cc[n+](COCCCCCC)c1.O=S(=O)([N-]S(=O)(=O)C(F)(F)F)C(F)(F)F	2.7 ± 0.18	2.64 ± 0.18	2.59 ± 0.18	2.54 ± 0.17	2.49 ± 0.17	2.45 ± 0.17	2.41 ± 0.16	2.37 ± 0.16
